Measured values reported in ChEMBL document CHEMBL4613224, “Synthesis, in-vitro antiprotozoal activity and molecular docking study of isothiocyanate derivatives” (Bioorg Med Chem, 2020).
Calls of active or inactive are those of the source. The rule behind the calls is not given here.

Assays:
[1] = system: Trypanosoma brucei rhodesiense; assay: Antitrypanosomal activity against bloodstream Trypanosoma brucei rhodesiense STIB900 assessed as parasite growth inhibition at 2 ug/ml measured after 70 hrs by Alamar blue assay relative to control; assay type: functional; details: STIB900, 70 h
L6 = assay: Cytotoxicity against rat L6 cells assessed as reduction in cell viability measured after 72 hrs by Alamar blue based inverted microscopy analysis; details: L6, 72 h, read-out: IC50
[2] = Selectivity index, ratio of IC50 for rat L6 cells assessed as reduction in cell viability measured after 72 hrs by Alamar blue based inverted microscopy analysis to IC50 for Plasmodium falciparum NF54 measured after 24 hrs in presence of [3H] hypoxanthine by liquid scintillation counter analysis; assay type: toxicity; details: read-out: Ratio IC50
Plasmodium falciparum [3] = assay: Antiplasmodial activity against Plasmodium falciparum NF54 measured after 24 hrs in presence of [3H] hypoxanthine by liquid scintillation counter analysis; assay type: functional, organism-based
Leishmania donovani [4] = assay: Antileishmanial activity against Leishmania donovani MHOM-ET-67/L82 axenic amastigotes assessed as parasite growth inhibition measured after 72 hrs by Alamar blue based inverted microscopy analysis; assay type: functional, organism-based; details: MHOM-ET-67/L82, 72 h
[5] = Selectivity index, ratio of IC50 for rat L6 cells assessed as reduction in cell viability measured after 72 hrs by Alamar blue based inverted microscopy analysis to IC50 for Leishmania donovani MHOM-ET-67/L82 axenic amastigotes assessed as parasite growth inhibition measured after 72 hrs by Alamar blue based inverted microscopy analysis; assay type: toxicity; details: L6 cells, read-out: Ratio IC50
Leishmania donovani [6] = assay: Potency index, ratio of miltefosine IC50 to test compound IC50 for antileishmanial activity against Leishmania donovani MHOM-ET-67/L82 axenic amastigotes assessed as parasite growth inhibition measured after 72 hrs by Alamar blue based inverted microscopy analysis; assay type: functional
Trypanosoma cruzi = assay: Antitrypanosomal activity against Trypanosoma cruzi Tulahuen C4 trypomastigotes infected in rat L6 cells assessed as parasite growth inhibition at 2 ug/ml measured after 96 hrs by inverted microscopy analysis relative to control; assay type: functional
[7] = Selectivity index, ratio of IC50 for rat L6 cells assessed as reduction in cell viability measured after 72 hrs by Alamar blue based inverted microscopy analysis to IC50 for bloodstream Trypanosoma brucei rhodesiense STIB900 assessed as parasite growth inhibition measured after 70 hrs by Alamar blue assay; assay type: toxicity; details: read-out: Ratio IC50
Leishmania donovani [8] = assay: Antileishmanial activity against Leishmania donovani MHOM-ET-67/L82 axenic amastigotes assessed as parasite growth inhibition at 2 to 10 ug/ml measured after 72 hrs by Alamar blue based inverted microscopy analysis relative to control; assay type: functional
[9] = system: Trypanosoma brucei rhodesiense; assay: Antitrypanosomal activity against bloodstream Trypanosoma brucei rhodesiense STIB900 assessed as parasite growth inhibition measured after 70 hrs by Alamar blue assay; assay type: functional, organism-based; details: STIB900, 70 h
Plasmodium falciparum [10] = assay: Antiplasmodial activity against Plasmodium falciparum K1 assessed as reduction in parasite growth by [3H]-hypoxanthine incorporation assay; assay type: functional, organism-based

For `C[C@@H](CCCN=C=S)[C@H]1CC[C@H]2[C@@H]3CC[C@@H]4C[C@H](O)CC[C@]4(C)[C@H]3C[C@H](O)[C@]12C`, the inhibition at 2 µg/mL [1] was > 50%, the IC50 (L6) was 3.6 µM and the selectivity ratio at 72 h [2] was 1.1. It also gave an IC50 (Plasmodium falciparum [3]) of 3.4 µM, an IC50 (Leishmania donovani [4]) of 0.4 µM and a selectivity ratio at 72 h [5] of 9.9. For the same molecule, the “Ratio IC50” value (Leishmania donovani [6]) was 2, the inhibition (Trypanosoma cruzi) was “inactive” and the selectivity ratio at 72 h [7] was 3.3. For the same molecule, the “inhibition (INH)” value (Leishmania donovani [8]) was >90% and the IC50 [9] was 1.1 µM.

With `COc1ccc([C@H](O)[C@H]2c3c(cc4c(c3OC)OCO4)CCN2C)c(CO)c1OC` the IC50 (Plasmodium falciparum [10]) was 8 µM.
